The record followed here is US9156852B2, “Thieno[3,2-D]pyrimidine derivatives having inhibitory activity for protein kinases” (HANMI PHARM. CO., LTD, priority 2011, dated 2015).

In general, IC50 refers to the concentration at which inhibition is half-maximal.

The structures appear in SMILES notation.

Test [1] relates to SK-Mel-2 cells (N-RAS mutant melanoma). In words: Inhibition on cell growth of N-RAS mutant cell SK-Mel-2 (SRB). In kind it is cell-based. The note with it: Homo sapiens, 72 hours, SRB staining, described as GI50 in the method. Here is the method: N-RAS mutant cells, SK-Mel-2 cell lines (ATCC #HTB-68™), were obtained from ATCC (American Type Culture Collection: Rockville, Md.). SK-Mel-2 cell lines were incubated in a MEM medium supplemented with 10% FBS and 1% penicillin/streptomycin (Gibco BRL) under 37° C., 5% CO2 and 95% air. The cell lines were transferred into 96-well plates at a density of 5,000 cells/well, and cultured for 18 hours or more. The cells were treated with […]˜0.1 nM of test compounds, and cultured for 72 hours.
To evaluate cell viabilities, SK-Mel-2 cell lines were fixed with 10% TCA (trichloroacetic acid), stained with SRB (sulfohodamine B), and an absorbance was measured at 540 nm. Then, GI50, i.e., the concentration of drug to cause 50% reduction in proliferation of cancer cells, were calculated therefrom. The growth rates of cancer cells were calculated by Equation 1 or 2. [(Ti−Tz)/(C−Tz)]×100 (for Ti>=Tz) [Equation 1] [(Ti−Tz/Tz)×100 (for Ti<Tz) [Equation 2]
(§1) In Equations 1 and 2, ‘Tz’ refers to a density of untreated cells, which is an absorbance in 0% cell growth groups. ‘C’ refers to a density of cells cultured by adding only medium, and ‘Ti’ refers to a density of cells treated with test compounds.
GI50 value is the concentration of a test compound when the value of Equation 1 is 50, which indicates the concentration of test compound needed to reduce the growth of cancer cells to 50%. On each measurement, test compounds were compared with a control.
A general note: In SRB staining, fixed cells bind dye roughly in proportion to their protein.

The subject of test [2] is HepG2 cells (N-RAS mutant hepatoma carcinoma cell). Nature of the test: Inhibition on cell growth of N-RAS mutant cell HepG2 (SRB). The class given is cell-based. The settings on record: Homo sapiens, 72 hours, SRB staining, described as GI50 in the method. Here is the method:
N-RAS mutant cells HepG2 cells (HCC) cell lines (ATCC # HB-8065™), were obtained from ATCC (American Type Culture Collection: Rockville, Md.). HepG2 cell lines were incubated in a MEM medium supplemented with 10% FBS and 1% penicillin/streptomycin (Gibco BRL) under 37° C., 5% CO2 and 95% air. The cell lines were transferred into 96-well plates at a density of 5,000 cells/well, and cultured for 18 hours or more. The cell lines were treated with […]˜0.1 nM of test compounds, and cultured for 72 hours.
To evaluate cell viabilities, HepG2 cell lines were fixed with 10% TCA (trichloroacetic acid), stained with SRB (sulfohodamine B), and an absorbance was measured at 540 nm. Then, GI50, i.e., the concentration of drug to cause 50% reduction in proliferation of cancer cells, were calculated therefrom. The growth rates of cancer cells were calculated by Equation 1 or 2. [(Ti−Tz)/(C−Tz)]×100 (for Ti>=Tz) [Equation 1] [(Ti−Tz/Tz)×100 (for Ti<Tz) [Equation 2]
as §1
GI50 value is the concentration of test compound when the value of Equation 1 is 50, which indicates the concentration of test compound needed to reduce the growth of cancer cells to 50%. On each measurement, test compounds were compared with a control.

The target in a further test is B-RAF^V600E (Homo sapiens (Human), UniProt P15056, V600E). Nature of the test: RAF kinase activity, Kinase Profiling Service (Invitrogen). The class given is biochemical. The settings on record: B-RAF V600E mutant; read-out: B-RAFv^600E (IC50). The protocol:
(§2) The levels of enzymatic inhibition of the compounds were calculated as percent inhibition at various concentrations. Based on percent inhibition, dose-response curves were plotted using GraphPad Prism software.

A further test deals with RAF1 Y340D Y341D (C-RAF) (Homo sapiens (Human), UniProt P04049, Y340D/Y341D). The test is described as above. The class given is biochemical. The protocol: as §2
The target in a further test is B-RAF normal type (Homo sapiens (Human), UniProt P15056). Described as above. The class given is biochemical. Here is the method: as §2
A further test concerns the target DDR2 (Homo sapiens (Human), UniProt Q16832). In words: DDR2 kinase activity, Kinase Screening and Profiling Service (Invitrogen). In kind it is biochemical. Here is the method:
(§3) As such, the compounds prepared in Examples were tested for inhibitory activity against FMS, DDR1 and DDR2 kinases using Kinase Screening and Profiling Service (Invitrogen, U.S.).

A further test has as its target DDR1 (Homo sapiens (Human), UniProt Q08345). In words: DDR1 kinase activity, Kinase Screening and Profiling Service (Invitrogen). In kind it is biochemical. Here is the method:
as §3

Another test deals with FMS (Homo sapiens (Human), UniProt P07333). In words: FMS kinase activity, Kinase Screening and Profiling Service (Invitrogen). In kind it is biochemical. The protocol:
as §3

RAF1 Y340D Y341D (C-RAF), sequence (P04049 whole entry Y340D/Y341D): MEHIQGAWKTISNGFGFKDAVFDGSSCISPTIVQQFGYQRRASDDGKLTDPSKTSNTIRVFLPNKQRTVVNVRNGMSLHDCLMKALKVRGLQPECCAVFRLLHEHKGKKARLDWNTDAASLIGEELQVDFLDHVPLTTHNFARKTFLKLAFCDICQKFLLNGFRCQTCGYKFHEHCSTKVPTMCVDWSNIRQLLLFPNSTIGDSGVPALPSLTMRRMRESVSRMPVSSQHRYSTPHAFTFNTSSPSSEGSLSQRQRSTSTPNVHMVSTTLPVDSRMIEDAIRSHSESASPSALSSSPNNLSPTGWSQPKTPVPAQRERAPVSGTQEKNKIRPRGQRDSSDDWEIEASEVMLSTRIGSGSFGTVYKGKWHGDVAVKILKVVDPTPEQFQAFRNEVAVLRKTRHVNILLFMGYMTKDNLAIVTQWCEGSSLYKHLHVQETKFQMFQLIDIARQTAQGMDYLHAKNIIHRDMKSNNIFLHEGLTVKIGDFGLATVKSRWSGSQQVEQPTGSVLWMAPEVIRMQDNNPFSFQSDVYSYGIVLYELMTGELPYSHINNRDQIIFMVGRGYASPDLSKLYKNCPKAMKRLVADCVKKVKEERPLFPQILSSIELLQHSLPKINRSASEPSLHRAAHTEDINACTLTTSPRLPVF
DDR1, sequence (Q08345 19-913): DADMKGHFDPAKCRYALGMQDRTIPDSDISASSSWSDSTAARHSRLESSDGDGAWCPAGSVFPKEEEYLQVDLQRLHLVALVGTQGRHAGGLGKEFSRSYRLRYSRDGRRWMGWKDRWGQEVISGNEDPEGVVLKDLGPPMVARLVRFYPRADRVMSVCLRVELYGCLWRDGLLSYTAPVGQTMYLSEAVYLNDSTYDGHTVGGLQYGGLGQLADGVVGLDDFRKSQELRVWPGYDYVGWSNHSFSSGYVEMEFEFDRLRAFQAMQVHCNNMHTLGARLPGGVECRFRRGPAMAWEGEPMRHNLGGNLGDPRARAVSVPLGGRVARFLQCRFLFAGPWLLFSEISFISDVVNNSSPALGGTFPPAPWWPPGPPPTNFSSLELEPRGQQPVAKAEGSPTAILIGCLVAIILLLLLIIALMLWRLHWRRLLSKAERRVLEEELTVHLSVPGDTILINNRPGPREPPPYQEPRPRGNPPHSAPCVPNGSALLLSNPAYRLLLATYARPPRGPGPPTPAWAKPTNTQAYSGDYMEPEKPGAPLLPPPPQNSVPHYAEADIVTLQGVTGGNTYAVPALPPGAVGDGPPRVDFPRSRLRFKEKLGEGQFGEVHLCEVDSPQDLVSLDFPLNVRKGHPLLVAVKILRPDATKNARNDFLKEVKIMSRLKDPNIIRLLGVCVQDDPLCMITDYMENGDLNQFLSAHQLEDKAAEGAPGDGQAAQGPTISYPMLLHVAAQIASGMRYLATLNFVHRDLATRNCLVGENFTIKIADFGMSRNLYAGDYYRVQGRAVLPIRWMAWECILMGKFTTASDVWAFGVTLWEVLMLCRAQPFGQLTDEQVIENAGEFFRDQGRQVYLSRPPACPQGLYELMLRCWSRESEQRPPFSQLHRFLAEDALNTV
DDR2, sequence (Q16832 22-855): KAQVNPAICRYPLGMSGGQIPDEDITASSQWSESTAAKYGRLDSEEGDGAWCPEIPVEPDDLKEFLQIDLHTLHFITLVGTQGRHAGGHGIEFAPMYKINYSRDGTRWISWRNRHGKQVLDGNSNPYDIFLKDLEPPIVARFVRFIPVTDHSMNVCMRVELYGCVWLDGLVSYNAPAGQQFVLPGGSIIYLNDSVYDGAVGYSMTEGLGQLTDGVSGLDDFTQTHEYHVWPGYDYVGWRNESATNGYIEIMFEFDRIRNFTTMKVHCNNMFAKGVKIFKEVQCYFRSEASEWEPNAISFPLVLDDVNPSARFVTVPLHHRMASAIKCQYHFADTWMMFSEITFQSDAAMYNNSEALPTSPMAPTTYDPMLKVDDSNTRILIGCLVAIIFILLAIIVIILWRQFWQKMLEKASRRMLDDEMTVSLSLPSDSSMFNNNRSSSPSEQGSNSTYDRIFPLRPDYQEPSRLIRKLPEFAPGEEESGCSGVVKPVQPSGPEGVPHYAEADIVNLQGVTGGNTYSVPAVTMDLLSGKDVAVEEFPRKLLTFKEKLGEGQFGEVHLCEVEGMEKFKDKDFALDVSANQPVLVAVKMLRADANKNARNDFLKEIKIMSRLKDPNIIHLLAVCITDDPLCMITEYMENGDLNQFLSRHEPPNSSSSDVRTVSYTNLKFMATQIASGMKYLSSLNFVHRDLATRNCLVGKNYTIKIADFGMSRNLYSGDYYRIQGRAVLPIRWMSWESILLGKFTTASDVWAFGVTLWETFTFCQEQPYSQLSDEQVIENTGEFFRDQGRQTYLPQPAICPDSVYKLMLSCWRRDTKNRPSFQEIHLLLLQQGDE
FMS, sequence (P07333 20-972): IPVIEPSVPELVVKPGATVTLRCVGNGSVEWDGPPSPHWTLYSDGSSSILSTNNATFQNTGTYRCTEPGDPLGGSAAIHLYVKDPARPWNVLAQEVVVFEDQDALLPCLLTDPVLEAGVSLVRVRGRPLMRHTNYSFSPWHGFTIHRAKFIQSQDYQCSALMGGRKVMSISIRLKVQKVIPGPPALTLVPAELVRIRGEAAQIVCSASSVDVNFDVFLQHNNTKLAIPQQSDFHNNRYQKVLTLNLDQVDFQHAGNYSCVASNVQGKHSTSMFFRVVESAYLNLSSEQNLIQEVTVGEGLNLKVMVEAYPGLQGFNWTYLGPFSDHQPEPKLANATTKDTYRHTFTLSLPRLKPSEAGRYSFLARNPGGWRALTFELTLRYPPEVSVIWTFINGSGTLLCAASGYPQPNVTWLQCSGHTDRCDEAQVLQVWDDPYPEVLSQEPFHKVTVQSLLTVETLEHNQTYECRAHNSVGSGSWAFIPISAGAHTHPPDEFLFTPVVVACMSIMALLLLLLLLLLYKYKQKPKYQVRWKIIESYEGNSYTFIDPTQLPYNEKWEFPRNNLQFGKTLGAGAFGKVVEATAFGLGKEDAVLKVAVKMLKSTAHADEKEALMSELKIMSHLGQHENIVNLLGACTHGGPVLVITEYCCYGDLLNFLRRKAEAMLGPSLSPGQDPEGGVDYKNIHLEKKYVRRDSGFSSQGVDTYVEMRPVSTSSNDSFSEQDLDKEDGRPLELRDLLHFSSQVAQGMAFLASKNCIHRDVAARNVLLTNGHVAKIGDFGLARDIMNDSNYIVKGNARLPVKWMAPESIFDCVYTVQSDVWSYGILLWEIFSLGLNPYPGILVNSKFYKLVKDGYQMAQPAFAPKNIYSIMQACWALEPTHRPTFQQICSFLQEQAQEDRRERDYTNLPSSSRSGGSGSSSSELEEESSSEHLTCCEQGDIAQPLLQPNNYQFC
B-RAF^V600E, sequence (P15056 whole entry V600E): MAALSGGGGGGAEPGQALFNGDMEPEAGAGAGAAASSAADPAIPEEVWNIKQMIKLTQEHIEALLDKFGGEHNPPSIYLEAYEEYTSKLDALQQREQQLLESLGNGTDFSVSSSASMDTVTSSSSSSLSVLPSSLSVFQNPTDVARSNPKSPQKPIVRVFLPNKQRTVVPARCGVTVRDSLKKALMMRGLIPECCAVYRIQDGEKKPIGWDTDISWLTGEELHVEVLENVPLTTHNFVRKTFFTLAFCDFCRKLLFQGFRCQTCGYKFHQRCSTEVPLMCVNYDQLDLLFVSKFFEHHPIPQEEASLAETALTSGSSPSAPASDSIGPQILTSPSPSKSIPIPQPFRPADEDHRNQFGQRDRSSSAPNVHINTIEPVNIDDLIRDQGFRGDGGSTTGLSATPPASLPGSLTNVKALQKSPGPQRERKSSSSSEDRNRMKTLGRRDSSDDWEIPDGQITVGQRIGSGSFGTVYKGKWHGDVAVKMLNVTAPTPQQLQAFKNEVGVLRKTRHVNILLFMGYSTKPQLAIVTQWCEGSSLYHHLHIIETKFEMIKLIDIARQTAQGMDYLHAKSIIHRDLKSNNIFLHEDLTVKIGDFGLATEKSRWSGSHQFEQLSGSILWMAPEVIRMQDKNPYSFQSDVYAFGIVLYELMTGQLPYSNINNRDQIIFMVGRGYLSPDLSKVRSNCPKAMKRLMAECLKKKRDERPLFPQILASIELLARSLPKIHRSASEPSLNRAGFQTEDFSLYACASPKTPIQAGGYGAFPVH
B-RAF normal type, sequence (P15056 whole entry): as the sequence (P15056 whole entry V600E) above, with E600V counted along it

As for `Cc1ccc2c(Nc3ccc(OC(F)F)cc3)nccc2c1NC(=O)c1csc2c(N)ncnc12` [Example 50, 4-amino-N-(1-((4-(difluoromethoxy)phenyl)amino)-6-methylisoquinolin-5-yl)thieno[3,2-d]pyrimidine-7-carboxamide], the IC50 came out at 163 nM in test [1]; 44 nM in test [2]; 26 nM on B-RAF^V600E; 32 nM against RAF1 Y340D Y341D (C-RAF); 128 nM at B-RAF normal type.
`Cc1ccc2c(Nc3ccc(Cl)c(CN(C)C)c3)nccc2c1NC(=O)c1csc2c(N)ncnc12` [Example 59, 4-amino-N-(1-((4-chloro-3-((dimethylamino)methyl)phenyl)amino)-6-methylisoquinolin-5-yl)thieno[3,2-d]pyrimidine-7-carboxamide]: the IC50 in test [1] is 236 nM; in test [2], 47 nM; on B-RAF^V600E, 7 nM; on RAF1 Y340D Y341D (C-RAF) it was 6 nM; at B-RAF normal type, 42 nM.
For the compound `Cc1ccc2c(Nc3ccc(F)c(Cl)c3)nccc2c1NC(=O)c1csc2c(N)ncnc12` [Example 105, 4-amino-N-(1-((3-chloro-4-fluorophenyl)amino)-6-methylisoquinolin-5-yl)thieno[3,2-d]pyrimidine-7-carboxamide], the IC50 in test [1] turned out to be 210 nM; against DDR2, 181 nM; in test [2], 90 nM; on DDR1 it was 71 nM; on FMS it was 50 nM; at B-RAF^V600E it was 31 nM. The values for the IC50 against RAF1 Y340D Y341D (C-RAF) and against B-RAF normal type were 15 nM and 179 nM, respectively.
With `COc1ccc(Nc2nccc3c(NC(=O)c4csc5c(N)ncnc45)c(C)ccc23)cc1` [Example 16, 4-amino-N-(1-((4-methoxyphenyl)amino)-6-methylisoquinolin-5-yl)thieno[3,2-d]pyrimidine-7-carboxamide], the IC50 in test [1] is 52 nM; in test [2] it was 24 nM; on B-RAF^V600E it was 32 nM; against RAF1 Y340D Y341D (C-RAF), 5 nM; against B-RAF normal type it was 15 nM.
As to `Cc1ccc2c(Nc3cccc(Cl)c3F)nccc2c1NC(=O)c1csc2c(N)ncnc12` [Example 116, 4-amino-N-(1-((3-chloro-2-fluorophenyl)amino)-6-methylisoquinolin-5-yl)thieno[3,2-d]pyrimidine-7-carboxamide], the IC50 in test [1] came out at 76 nM; at DDR2, 44 nM; in test [2], 38 nM; against DDR1, 23 nM; against FMS, 10 nM; at B-RAF^V600E, 7 nM. The IC50 against RAF1 Y340D Y341D (C-RAF) worked out at 5 nM; on B-RAF normal type, 56 nM.
As to `Cc1ccc2c(Nc3ccc(Cl)cc3)nccc2c1NC(=O)c1csc2c(N)ncnc12` [Example 1, 4-amino-N-(1-((4-chlorophenyl)amino)-6-methylisoquinolin-5-yl)thieno[3,2-d]pyrimidine-7-carboxamide], the IC50 in test [1] is 56 nM; at DDR2 it was 5 nM; in test [2], 27 nM; against DDR1, 2 nM; on FMS, 1 nM; on B-RAF^V600E, 22 nM. The IC50 is 23 nM against RAF1 Y340D Y341D (C-RAF) and 121 nM on B-RAF normal type.
Regarding `CCCS(=O)(=O)Nc1ccc(F)c(C(=O)c2c[nH]c3ncc(-c4ccc(Cl)cc4)cc23)c1F` [Control, Vemurafenib, reference compound], the IC50 (in test [1]; at DDR2; in test [2]; at DDR1; at FMS) was over 1000 nM each time.
With `CC(=O)c1ccc(Nc2nccc3c(NC(=O)c4csc5c(N)ncnc45)c(C)ccc23)cc1` [Example 83, N-(1-((4-acetylphenyl)amino)-6-methylisoquinolin-5-yl)-4-aminothieno[3,2-d]pyrimidine-7-carboxamide], the IC50 in test [1] is 60 nM; on DDR2 it was 10 nM; in test [2] it was 30 nM; against DDR1, 5 nM; against FMS, 4 nM; on B-RAF^V600E, 5 nM. Besides, the values for the IC50 against RAF1 Y340D Y341D (C-RAF) and against B-RAF normal type were 7 nM and 12 nM, respectively.
As for `Cc1ccc2c(Nc3cccc(Cl)c3)nccc2c1NC(=O)c1csc2c(N)ncnc12` [Example 38, 4-amino-N-(1-((3-chlorophenyl)amino)-6-methylisoquinolin-5-yl)thieno[3,2-d]pyrimidine-7-carboxamide], the IC50 in test [1] was determined as 97 nM; in test [2], 41 nM.
